Measured values taken from patent publication US10131652B2, “Pyrimidinyloxy benzene derivatives as herbicides” (E. I. DU PONT DE NEMOURS AND COMPANY, priority 2014, dated 2018).

Columns and labels:
Type in all cases: in vivo
[1] = tested on: barnyardgrass (Echinochloa crus-galli); assay: Test C flooded paddy test plant response; settings: Flood, 250 g ai/ha; scale of 0 to 100 where 0 is no effect and 100 is complete control; 13 to 15 days
Outline: (§1)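 Greenhouse paddy assay, 13–15 days. Treatment into 3 cm floodwater over 2-leaf plants; visual 0–100 rating against controls.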

rice (Oryza sativa) = assay: Test C flooded paddy test plant response; settings: Flood, 250 g ai/ha; scale of 0 to 100 where 0 is no effect and 100 is complete control; 13 to 15 days
Outline: as §1

[2] = tested on: small-flower umbrella sedge (Cyperus difformis); assay: Test C flooded paddy test plant response; settings: Flood, 250 g ai/ha; scale of 0 to 100 where 0 is no effect and 100 is complete control; 13 to 15 days
Outline: as §1

[3] = tested on: ducksalad (Heteranthera limosa); assay: Test C flooded paddy test plant response; settings: Flood, 250 g ai/ha; scale of 0 to 100 where 0 is no effect and 100 is complete control; 13 to 15 days
Outline: as §1

[4] = tested on: Italian ryegrass (Lolium multiflorum); assay: Test B pre-/postemergence plant response
Outline: (§2)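 Seeds in loam–sand blend given preemergence soil spray; separately, plants at one- to two-leaf stage (2–10 cm) sprayed postemergence, compounds in non-phytotoxic solvent with surfactant. Injury rated visually versus untreated controls after ~10 days in greenhouse, 0 (no effect) to 100 (complete control).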

[5] = tested on: ragweed (common ragweed, Ambrosia elatior); assay: Test B pre-/postemergence plant response
Outline: as §2

[6] = tested on: barnyardgrass (Echinochloa crus-galli); assay: Test B pre-/postemergence plant response
Outline: as §2

kochia (Kochia scoparia) = assay: Test B pre-/postemergence plant response
Outline: as §2

[7] = tested on: wheat (Triticum aestivum); assay: Test B pre-/postemergence plant response
Outline: as §2

[8] = tested on: pigweed (Amaranthus retroflexus); assay: Test B pre-/postemergence plant response
Outline: as §2

[9] = tested on: giant foxtail (Setaria faberii); assay: Test B pre-/postemergence plant response
Outline: as §2

corn (Zea mays) = assay: Test B pre-/postemergence plant response
Outline: as §2

[10] = tested on: galium (catchweed bedstraw, Galium aparine); assay: Test B postemergence plant response
Outline: (§3)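 Weeds grown in loam soil/sand pots were sprayed postemergence at 2 to 10 cm height, one- to two-leaf stage. After approximately 10 days in greenhouse, injury was rated visually against untreated controls on a 0 (no effect) to 100 (complete control) scale; dash means no test result.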

[11] = tested on: blackgrass (Alopecurus myosuroides); assay: Test B postemergence plant response
Outline: as §3

[12] = 31 g ai/ha, Preemergence, 0 to 100 scale where 0 is no effect and 100 is complete control
[13] = 125 g ai/ha, postemergence, 0 to 100 scale, 0 no effect, 100 complete control
[14] = Preemergence, 125 g ai/ha, 0 to 100 scale (0 no effect, 100 complete control)
[15] = 31 g ai/ha, Postemergence, 0 to 100 scale, 0 no effect, 100 complete control
[16] = Postemergence, 31 g ai/ha, 0 to 100 scale (0 no effect, 100 complete control)
[17] = Postemergence, 1000 g ai/ha, 0 to 100 scale (0 no effect, 100 complete control)
[18] = Preemergence, 1000 g ai/ha, 0 to 100 scale (0 no effect, 100 complete control)
[19] = Preemergence, 125 g ai/ha, 0 to 100 scale where 0 is no effect and 100 is complete control

SMILES	Barnyardgrass plant response rating [1]	Rice plant response rating (rice (Oryza sativa))	Sedge, Umbrella plant response rating [2]	Ducksalad plant response rating [3]	Plant response rating, Ryegrass, Italian [4, 12]	Plant response rating, Ryegrass, Italian [4, 13]	Plant response rating, Ragweed [5, 12]	Plant response rating, Ragweed [5, 13]	Plant response rating, Barnyardgrass [6, 15]	Plant response rating, Barnyardgrass [6, 12]	Plant response rating, Barnyardgrass [6, 13]	Plant response rating, Kochia (kochia (Kochia scoparia); [13])	Plant response rating, Wheat [7, 13]	Plant response rating, Pigweed [8, 12]	Plant response rating, Pigweed [8, 13]	Plant response rating, Foxtail, Giant [9, 12]	Plant response rating, Foxtail, Giant [9, 13]	Plant response rating, Corn (corn (Zea mays); [13])	Plant response rating, Galium [10, 13]	Plant response rating, Blackgrass [11, 13]	further results
FC(F)(F)c1cc(-c2c(Cl)cccc2Oc2ncc(Cl)cn2)on1 [Compound 126]	95	75	100	100	40	100	10	40	80	90	100	90	40	100	100	100	90	70	100	90	Ryegrass, Italian plant response rating [4, 14]: 100; Ragweed plant response rating [5, 14]: 10; Barnyardgrass plant response rating [6, 14]: 100; Plant response rating, Kochia (kochia (Kochia scoparia); [12]): 80; Kochia plant response rating (kochia (Kochia scoparia); [14]): 90; Pigweed plant response rating [8, 14]: 100; Plant response rating, Foxtail, Giant [9, 15]: 60; Foxtail, Giant plant response rating [9, 14]: 100; Plant response rating, Corn (corn (Zea mays); [15]): 20; Plant response rating, Blackgrass [11, 15]: 60
Clc1cnc(Oc2ccccc2-c2cc(Cl)ccn2)nc1 [Compound 174]	0	0	0	0	0	0	0	30	–	0	10	70	0	60	50	0	0	0	70	50	Plant response rating, Ryegrass, Italian [4, 16]: 0; Ryegrass, Italian plant response rating [4, 14]: 0; Plant response rating, Ragweed [5, 16]: 20; Ragweed plant response rating [5, 14]: 0; Plant response rating, Barnyardgrass [6, 16]: 0; Barnyardgrass plant response rating [6, 14]: 0; Plant response rating, Kochia (kochia (Kochia scoparia); [16]): 60; Kochia plant response rating (kochia (Kochia scoparia); [14]): 0; Plant response rating, Wheat [7, 16]: 0; Plant response rating, Pigweed [8, 16]: 50; Pigweed plant response rating [8, 14]: 80; Plant response rating, Foxtail, Giant [9, 16]: 0; Foxtail, Giant plant response rating [9, 14]: 40; Plant response rating, Corn (corn (Zea mays); [16]): 0; Plant response rating, Galium [10, 16]: 60; Plant response rating, Blackgrass [11, 16]: 40
Clc1cnc(Oc2ccccc2-c2ccc(Cl)nn2)nc1 [Compound 186]	0	0	0	0	–	–	–	–	–	–	–	–	–	–	–	–	–	–	–	–	Plant response rating, Ryegrass, Italian [4, 17]: 0; Plant response rating, Ryegrass, Italian [4, 18]: 0; Plant response rating, Ragweed [5, 17]: 50; Plant response rating, Ragweed [5, 18]: 70; Plant response rating, Barnyardgrass [6, 17]: 0; Plant response rating, Barnyardgrass [6, 18]: 20; Plant response rating, Kochia (kochia (Kochia scoparia); [17]): 30; Plant response rating, Kochia (kochia (Kochia scoparia); [18]): 100; Plant response rating, Wheat [7, 17]: 0; Plant response rating, Pigweed [8, 17]: 20; Plant response rating, Pigweed [8, 18]: 100; Plant response rating, Foxtail, Giant [9, 17]: 30; Plant response rating, Foxtail, Giant [9, 18]: 100; Plant response rating, Corn (corn (Zea mays); [17]): 0; Plant response rating, Galium [10, 17]: 20; Plant response rating, Blackgrass [11, 17]: 20
Cn1cnc(-c2ccccc2Oc2ncc(Cl)cn2)n1 [Compound 115]	0	0	0	0	0	0	0	0	0	0	0	0	0	0	0	0	0	0	0	0	Plant response rating, Ryegrass, Italian [4, 15]: 0; Plant response rating, Ragweed [5, 15]: 0; Plant response rating, Barnyardgrass [6, 19]: 0; Plant response rating, Kochia (kochia (Kochia scoparia); [15]): 0; Plant response rating, Kochia (kochia (Kochia scoparia); [12]): 0; Plant response rating, Kochia (kochia (Kochia scoparia); [19]): 0; Plant response rating, Wheat [7, 15]: 0; Plant response rating, Pigweed [8, 15]: 0; Plant response rating, Foxtail, Giant [9, 15]: 0; Plant response rating, Foxtail, Giant [9, 19]: 0; Plant response rating, Corn (corn (Zea mays); [15]): 0; Plant response rating, Galium [10, 15]: 0; Plant response rating, Blackgrass [11, 15]: 0
COc1cccc(Oc2ncc(F)cn2)c1-c1cc(C)no1 [Compound 111]	0	0	0	0	0	0	0	20	0	0	10	30	0	10	20	0	60	10	20	40	Plant response rating, Ryegrass, Italian [4, 15]: 0; Plant response rating, Ragweed [5, 15]: 10; Plant response rating, Barnyardgrass [6, 19]: 20; Plant response rating, Kochia (kochia (Kochia scoparia); [15]): 20; Plant response rating, Kochia (kochia (Kochia scoparia); [12]): 0; Plant response rating, Kochia (kochia (Kochia scoparia); [19]): 10; Plant response rating, Wheat [7, 15]: 0; Plant response rating, Pigweed [8, 15]: 0; Plant response rating, Foxtail, Giant [9, 15]: 0; Plant response rating, Foxtail, Giant [9, 19]: 50; Plant response rating, Corn (corn (Zea mays); [15]): 0; Plant response rating, Galium [10, 15]: 10; Plant response rating, Blackgrass [11, 15]: 0
